Literature values, collected in patent US7618976B2, “Methods for the production of sildenafil base and citrate salt” (Teva Pharmaceutical Industries Ltd, priority 2004, dated 2009).

Tested on: isolated human corpus cavernosum

For CCCc1nn(C)c2c(=O)[nH]c(-c3cc(S(=O)(=O)N4CCN(C)CC4)ccc3OCC)nc12 [Sildenafil], the “direct relaxant effect on isolated human corpus cavernosum” value is listed as “no direct relaxant effect”.
